The text below walks through data of US10111833B2, “Sildenafil sublingual spray formulations” (Insys Development Company, Inc., priority 2015, dated 2018).

The nature of series [1]: Freeze/thaw stability testing. It counts as physicochemical. Particulars: Drug Substance. The source says: The results are below in Tables 13-18.
The nature of series [2]: Impurity formation / standard stability testing (clarity, color, pH, assay, impurities). Particulars: Drug Substance. The class given is physicochemical. The text has this:
In order to further determine the stability of Formulations 1, 3A, 3B, 5A, 5B, 5C, 5D and 5E, the formulations were subjected to standard stability testing to determine impurity levels. The results are below in Tables 7-11.

The structures appear in SMILES notation.

For the molecule `CCCc1nn(C)c2c(=O)[nH]c(-c3cc(S(=O)(=O)N4CCN(C)CC4)ccc3OCC)nc12` [Drug Substance, Sildenafil base], in series [1], the Color entry is “colorless” and the Physical appearance entry is on record as “clear”. In addition, in series [2], the “Assay (% of initial Conc)” value came out at 100.70%, the “Impurity A” value is on record as “BQL (BQL = Below Quantification Limit (Limit of Quantification = 0.05%))”, the “Impurity B” value was “ND (ND = Not Detected (Limit of Detection = 0.01%))” and the “Impurity C” value was “BQL (BQL = Below Quantification Limit (Limit of Quantification = 0.05%))”. Moreover, in series [2], the “Impurity D” value is listed as “BQL (BQL = Below Quantification Limit (Limit of Quantification = 0.05%))”, the “Total Impurities” value is given as 0.00%, the “Unknown Impurity RRT 0.24” value was “ND (ND = Not Detected (Limit of Detection = 0.01%))” and the “Unknown Impurity RRT 0.61” value is “ND (ND = Not Detected (Limit of Detection = 0.01%))”. The Physical appearance entry in series [2] (first line of cell (clarity)) is “clear,”. Further, the Physical appearance entry in series [2] (second line of cell (color)) was “colorless”.
